The text below walks through data of patent US20180256509A1, “Nanoparticle Compositions and Methods Thereof to Restore Vascular Integrity” (priority 2014, published 2018).

This assay deals with C57BL mice infused with LPS. Briefly: Endotoxemia study: vascular permeability (intravascular-extravascular intensity). It is filed as in vivo. As to conditions: 2 hours after LPS infusion; 10 mg/kg; FIG. 10. The method, then: In this study, the effect of treatment with curcumin-selenium nanoparticles was evaluated in animal models with endotoxemia. In particular, C57BL mice were first infused with 10 mg/kg of LPS (Lipopolysaccharides from E. coli serotype 0128:B12, Sigma Aldrich St. Louis, Mo.). The mice were then separated into 5 treatment groups: 1) no treatment; 2) control NP 10 mg/kg; 3) curcumin 10 mg/kg; 4) curcumin-NP 10 mg/kg (dose calculated based on curcumin concentration); and 5) curcumin-selenium-NP 10 mg/kg (dose calculated based on curcumin concentration). Treatments were administered 30 minutes after LPS infusion. No additional fluid therapies were applied, and food and water was available during observation time points. […] Vascular integrity for all treatment groups was also evaluated at baseline and 2 hours after LPS infusion. Additionally, other end points related to systemic and microvascular function (i.e., heart rate, arteriolar diameter, arteriolar blood flow, and functional capillary density) were evaluated for 4 of the treatment groups (no treatment, control NP 10, curcumin-NP 10 mg/kg, and curcumin-selenium-NP 10 mg/kg treatment groups) at baseline, and 2, 4, 6, 12, and 24 hours after LPS infusion.

Regarding `COc1cc(/C=C/C(=O)CC(=O)/C=C/c2ccc(O)c(OC)c2)ccc1O` [curcumin], the “vascular permeability compared with the untreated and control NP treatment groups” value is given as “markedly less vascular permeability”.
